From patent US20090155387A1, “STABLE PHARMACEUTICAL COMPOSITION COMPRISING BETA-LACTAM ANTIBIOTIC AND ION-CHELATING AGENT” (priority 2006, published 2009)
Each block holds one compound with its values, some of them ahead of it.

Assay: Amounts of β-lactam antibiotic, β-lactamase inhibitor and aminoglycoside antibiotic in solution over time (reverse-phase LC/HPLC)
Format: physicochemical
Description: The amounts of β-lactam antibiotics and β-lactamase inhibitor were determined using C18 reverse-phase LC and UV-VIS detector (Tianjin […] Co., Ltd., analysis method No. HM-K-03). The content of aminoglycoside antibiotics was measured using reverse-phase HPLC and evaporation-light-scattering detector (ELSD detector) (Tianjin […] Co., Ltd., analysis method No. HM-K-08). The amount of antibiotic component at each time point was expressed as a percentage with respect to the amount at the initial time. The relative amount of each antibiotic component in the composition at each time point was expressed as peak area ratio with respect to the corresponding peak area of an external standard.

[1] = in Example 8 solution from freeze-dried powder stored 7 days at 0° C., redissolved in injectable water, 0 h
[2] = in Example 8 solution from freeze-dried powder stored 7 days at 0° C., redissolved in injectable water, 1 h
[3] = in Example 8 solution from freeze-dried powder stored 7 days at 0° C., redissolved in injectable water, 2 h
[4] = in Example 8 solution from freeze-dried powder stored 7 days at 0° C., redissolved in injectable water, 4 h
[5] = in Example 8 solution from freeze-dried powder stored 7 days at 0° C., redissolved in injectable water, 6 h
[6] = in Example 8 solution from freeze-dried powder stored 7 days at 0° C., redissolved in injectable water, 8 h

amount (percentage of initial amount) [1]: 102.2%
amount (percentage of initial amount) [2]: 97.53%
amount (percentage of initial amount) [3]: 94.16%
amount (percentage of initial amount) [4]: 94.58%
amount (percentage of initial amount) [5]: 95.45%
amount (percentage of initial amount) [6]: 94.44%
amount (percentage of initial amount) (in Example 16 solution, pH 6.5, room temperature, 0 h): 98.77%
amount (percentage of initial amount) (in Example 16 solution, pH 6.5, room temperature, 1 h): 108.2%
amount (percentage of initial amount) (in Example 16 solution, pH 6.5, room temperature, 2 h): 110.8%
amount (percentage of initial amount) (in Example 16 solution, pH 6.5, room temperature, 4 h): 97.39%
amount (percentage of initial amount) (in Example 16 solution, pH 6.5, room temperature, 6 h): 106.3%
amount (percentage of initial amount) (in Example 16 solution, pH 6.5, room temperature, 8 h): 106.3%
amount (percentage of initial amount) (in Example 21 solution, pH 6.75, room temperature (22° C.), 0 h): 93.36%
amount (percentage of initial amount) (in Example 21 solution, pH 6.75, room temperature (22° C.), 1 h): 104.8%
amount (percentage of initial amount) (in Example 21 solution, pH 6.75, room temperature (22° C.), 2 h): 100.0%
amount (percentage of initial amount) (in Example 21 solution, pH 6.75, room temperature (22° C.), 4 h): 96.58%
amount (percentage of initial amount) (in Example 21 solution, pH 6.75, room temperature (22° C.), 6 h): 106.1%
amount (percentage of initial amount) (in Example 21 solution, pH 6.75, room temperature (22° C.), 8 h): 107.1%
Structure (SMILES): C[C@]1(Cn2ccnn2)[C@H](C(=O)O)N2C(=O)C[C@H]2S1(=O)=O [Tazobactam sodium]

amount (percentage of initial amount) (in Example 7 solution, pH 6.75, room temperature, 0 h): 97.01%
amount (percentage of initial amount) (in Example 7 solution, pH 6.75, room temperature, 1 h): 100.3%
amount (percentage of initial amount) (in Example 7 solution, pH 6.75, room temperature, 2 h): 96.40%
amount (percentage of initial amount) (in Example 7 solution, pH 6.75, room temperature, 4 h): 99.01%
amount (percentage of initial amount) (in Example 7 solution, pH 6.75, room temperature, 6 h): 98.91%
amount (percentage of initial amount) (in Example 7 solution, pH 6.75, room temperature, 8 h): 99.53%
amount (percentage of initial amount) [1]: 98.75%
amount (percentage of initial amount) [2]: 100.1%
amount (percentage of initial amount) [3]: 99.97%
amount (percentage of initial amount) [4]: 98.87%
amount (percentage of initial amount) [5]: 99.27%
amount (percentage of initial amount) [6]: 100.5%
amount (percentage of initial amount) (in Example 9 solution from freeze-dried powder stored 7 days at 0° C., redissolved in injectable water, 0 h): 92.24%
amount (percentage of initial amount) (in Example 9 solution from freeze-dried powder stored 7 days at 0° C., redissolved in injectable water, 1 h): 96.28%
amount (percentage of initial amount) (in Example 9 solution from freeze-dried powder stored 7 days at 0° C., redissolved in injectable water, 2 h): 94.97%
amount (percentage of initial amount) (in Example 9 solution from freeze-dried powder stored 7 days at 0° C., redissolved in injectable water, 4 h): 94.20%
amount (percentage of initial amount) (in Example 9 solution from freeze-dried powder stored 7 days at 0° C., redissolved in injectable water, 6 h): 97.91%
amount (percentage of initial amount) (in Example 9 solution from freeze-dried powder stored 7 days at 0° C., redissolved in injectable water, 8 h): 93.23%
amount (percentage of initial amount) (in Example 24 solution, pH 6.75, room temperature, 0 h): 110.2%
amount (percentage of initial amount) (in Example 24 solution, pH 6.75, room temperature, 1 h): 117.6%
amount (percentage of initial amount) (in Example 24 solution, pH 6.75, room temperature, 2 h): 119.4%
amount (percentage of initial amount) (in Example 24 solution, pH 6.75, room temperature, 4 h): 111.5%
amount (percentage of initial amount) (in Example 24 solution, pH 6.75, room temperature, 6 h): 113.4%
amount (percentage of initial amount) (in Example 24 solution, pH 6.75, room temperature, 8 h): 120.0%
Structure (SMILES): CO/N=C(\C(=O)N[C@@H]1C(=O)N2C(C(=O)O)=C(CSc3nc(=O)c(=O)[nH]n3C)CS[C@H]12)c1csc(N)n1 [Ceftriaxone sodium]

amount (percentage of initial amount) (in Example 22 solution (2.5% fructose), pH 6.0, room temperature, 0 h): 92.40%
amount (percentage of initial amount) (in Example 22 solution (2.5% fructose), pH 6.0, room temperature, 1 h): 98.91%
amount (percentage of initial amount) (in Example 22 solution (2.5% fructose), pH 6.0, room temperature, 2 h): 104.0%
amount (percentage of initial amount) (in Example 22 solution (2.5% fructose), pH 6.0, room temperature, 4 h): 98.91%
amount (percentage of initial amount) (in Example 22 solution (2.5% fructose), pH 6.0, room temperature, 6 h): 99.03%
amount (percentage of initial amount) (in Example 22 solution (2.5% fructose), pH 6.0, room temperature, 8 h): 85.02%
Structure (SMILES): CC1(C)S[C@@H]2[C@H](NC(=O)[C@H](NC(=O)N3CCNC3=O)c3ccccc3)C(=O)N2[C@H]1C(=O)O [Azlocillin sodium]

amount (percentage of initial amount) (in Example 19 solution, pH 6.75, room temperature, 0 h): 99.91%
amount (percentage of initial amount) (in Example 19 solution, pH 6.75, room temperature, 1 h): 99.50%
amount (percentage of initial amount) (in Example 19 solution, pH 6.75, room temperature, 2 h): 98.88%
amount (percentage of initial amount) (in Example 19 solution, pH 6.75, room temperature, 4 h): 99.45%
amount (percentage of initial amount) (in Example 19 solution, pH 6.75, room temperature, 6 h): 98.56%
amount (percentage of initial amount) (in Example 19 solution, pH 6.75, room temperature, 8 h): 99.36%
amount (percentage of initial amount) (in Example 20 solution (no EDTA), pH 6.75, room temperature, 0 h): 95.98%
amount (percentage of initial amount) (in Example 20 solution (no EDTA), pH 6.75, room temperature, 1 h): 91.49%
amount (percentage of initial amount) (in Example 20 solution (no EDTA), pH 6.75, room temperature, 2 h): 85.05%
amount (percentage of initial amount) (in Example 20 solution (no EDTA), pH 6.75, room temperature, 4 h): 91.00%
amount (percentage of initial amount) (in Example 20 solution (no EDTA), pH 6.75, room temperature, 6 h): 81.93%
amount (percentage of initial amount) (in Example 20 solution (no EDTA), pH 6.75, room temperature, 8 h): 89.98%
Structure (SMILES): NCC[C@H](O)C(=O)N[C@@H]1C[C@H](N)[C@@H](O[C@H]2O[C@H](CN)[C@@H](O)[C@H](O)[C@H]2O)[C@H](O)[C@H]1O[C@H]1O[C@H](CO)[C@@H](O)[C@H](N)[C@H]1O [Amikacin]
